For the test, the target named is Acetylcholine receptor subunit alpha (Mus musculus) (UniProt P04756). Kind of test: blockade of mouse muscle nicotinic receptor currents – cell-based, Mus musculus, Xenopus oocytes (AID 743368). Particulars: two-electrode voltage clamp, ACh-evoked current. On the technique in general: Two-electrode voltage clamp holds a large cell at a set potential and records current.
Chain of Acetylcholine receptor subunit alpha (Mus musculus) (P04756 whole entry, looked up): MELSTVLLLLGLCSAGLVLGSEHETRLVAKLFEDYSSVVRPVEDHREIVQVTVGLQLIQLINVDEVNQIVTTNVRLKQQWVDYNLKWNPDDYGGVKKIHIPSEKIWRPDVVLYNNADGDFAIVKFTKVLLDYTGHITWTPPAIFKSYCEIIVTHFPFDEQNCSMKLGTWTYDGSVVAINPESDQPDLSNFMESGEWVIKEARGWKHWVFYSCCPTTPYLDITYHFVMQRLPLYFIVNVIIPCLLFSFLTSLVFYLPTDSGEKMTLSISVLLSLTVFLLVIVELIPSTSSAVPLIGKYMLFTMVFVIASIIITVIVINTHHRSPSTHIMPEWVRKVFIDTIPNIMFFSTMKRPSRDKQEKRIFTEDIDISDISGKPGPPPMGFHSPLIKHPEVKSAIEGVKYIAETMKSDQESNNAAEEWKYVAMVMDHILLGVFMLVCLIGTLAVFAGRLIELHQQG

A word on the IC50: it is the midpoint of a concentration-inhibition curve. Turning to `CC/C=C/[C@@H]1CC[C@]2(C[C@H]3CC[C@H]4[C@@H](C(=O)OC(CC)CCCCCCCCCCCCC[C@@H]5O[C@](O)(CCN)[C@H](O)N(CCCN)C5=O)[C@@]5(CCC[C@H](C)O5)NC(=[N+]34)N2)O1` (stereo partly drawn), the concentration for half-maximal inhibition (IC50) was 4.1 µM.

`COc1cc(CCN)c2c(c1OC)SSSSS2`: the half-inhibitory concentration (IC50) was 8.7 µM.

`COn1c(Br)c2c3c(cccc31)[C@H]1C[C@@H](C)CN(C)[C@@H]1C2`: the IC50 was 3.7 µM.

For the origin of these results see PubChem BioAssay AID743368.
